Patent US20260226010A1, “HETEROCYCLIC COMPOUNDS AS PI3Ka INHIBITORS” (Pikavation Therapeutics, Inc., priority 2023, published 2026)

The compounds below were run on T47D (PIK3CA H1047R) cells (assay: pS473 AKT assay). Conditions: Homo sapiens; pSer473 AKT in T47D (PIK3CA H1047R) cells, 2 h treatment, DMEM with 2.5% FBS; read-out: T47D_IC50.
Format: cell-based
Method: T47D (PIK3CA H1047R) cells were cultured using 10-cm petri dishes with recommended medium plus 10% fetal bovine serum. One day before the assay, cells were seeded in 96-well plates. After overnight incubation, the medium was changed to DMEM with 2.5% fetal bovine serum (FBS) and the cells were treated with different concentrations of the compounds for 2 h. Cells were then fixed using 4% paraformaldehyde at room temperature for 20 min. Aspirate 4% paraformaldehyde, and wash cells using 1× regular phosphate buffered saline 3 times, 5 min each. Aspirate any residual phosphate buffered saline and block cells using 10% goat serum containing 1% bovine serum albumin and 0.3% Triton X-100 at room temperature for 1 h. Without any additional washing, primary antibodies (rabbit anti-pSer473 AKT) were diluted using blocking buffer and added at a final volume of 50 microliter per well. Keep assay plates with primary antibodies overnight at 4° C. Wash cells using 1× regular phosphate buffered saline 3 times, 5 min each. After the final wash, incubate cells with horseradish peroxidase-conjugated secondary antibodies (goat Anti-rabbit IgG) diluted using the same blocking buffer at room temperature for 1 h. Wash cells thoroughly using 1× regular phosphate buffered saline 3 times, 5 min each. Aspirate any residual phosphate buffered saline. Add Super-Signal ELISA Pico Chemiluminescent Substrate at a final volume of 100 microliter per well. Read plates on i3× Multi-Mode Microplate Reader and calculate IC50 values using GraphPad Prism software.

| Compound | IC50 |
| --- | --- |
| Cc1cc2c(c(C(C)Nc3ccc(C)nc3C(=O)O)c1)CC1(Cc3ccccc3C1)N(C)C2=O (stereo not shown) [Example 5, 3-((1-(2′,7′-Dimethyl-1′-oxo-1,1′,3,4′-tetrahydro-2′H-spiro[indene-2,3′-isoquinolin]-5′-yl)ethyl)amino)-6-methylpicolinic acid] | 1000 to 5000 nM |
| Cc1cc2c(c(C(C)Nc3ccc(Cl)nc3-c3cnn(C)c3)c1)CC1(CCc3ccccc31)N(C)C2=O (stereo not shown) [Example 6, 5-[1-[[6-Chloro-2-(1-methylpyrazol-4-yl)-3-pyridyl]amino]ethyl]-2,7-dimethyl-spiro[4H-isoquinoline-3,1′-indane]-1-one] | < 1000 nM |
| Cc1cc2c(c(C(C)Nc3ccc(Cl)nc3-c3ccncc3F)c1)CC1(CCc3ccccc31)N(C)C2=O (stereo not shown) [Example 7, 5-[1-[[6-Chloro-2-(3-fluoro-4-pyridyl)-3-pyridyl]amino]ethyl]-2,7-dimethyl-spiro[4H-isoquinoline-3,1′-indane]-1-one] | < 1000 nM |

Continued, values first:

| IC50 | Compound |
| --- | --- |
| < 1000 nM | Cc1cc2c(c(C(C)Nc3ccccc3C(=O)O)c1)CC1(CCc3ccccc31)N(C)C2=O (stereo not shown) [Example 1, 2-[1-(2,7-Dimethyl-1-oxo-spiro[4H-isoquinoline-3,1′-indane]-5yl)ethylamino]benzoic acid] |
| < 1000 nM | Cc1cc2c(c(C(C)Nc3ccc(C)nc3C(=O)O)c1)CC1(CCc3ccccc31)N(C)C2=O (stereo not shown) [Example 2, 3-[1-(2,7-Dimethyl-1-oxo-spiro[4H-isoquinoline-3,1′-indane]-5-yl)ethylamino]-6-methyl-pyridine-2-carboxylic acid] |
| < 1000 nM | Cc1cc2c(c(C(C)Nc3ccc(Cl)nc3C(=O)O)c1)CC1(CCc3ccccc31)N(C)C2=O (stereo not shown) [Example 3, 6-Chloro-3-[1-(2,7-dimethyl-1-oxo-spiro[4H-isoquinoline-3,1′-indane]-5-yl)ethylamino]pyridine-2-carboxylic acid] |
| 1000 to 5000 nM | Cc1cc2c(c(C(C)Nc3ccccc3C(=O)O)c1)CC1(Cc3ccccc3C1)N(C)C2=O (stereo not shown) [Example 4, 2-[1-(2,7-Dimethyl-1-oxo-spiro[4H-isoquinoline-3,2′-indane]-5-yl)ethylamino]benzoic acid] |
